Where a SMILES comes first, the peptide text is derived from it.
What was measured:
β-catenin = biological target: T1, β-catenin (Homo sapiens, UniProt P35222); assay: KD50 measurement using competitive fluorescence polarization (FP) with labelled TCF4; format: binding; details: fluorescence polarization, β-catenin; for Kd: read-out: β-Cat FP KD
T1 sequence (P35222 1-781): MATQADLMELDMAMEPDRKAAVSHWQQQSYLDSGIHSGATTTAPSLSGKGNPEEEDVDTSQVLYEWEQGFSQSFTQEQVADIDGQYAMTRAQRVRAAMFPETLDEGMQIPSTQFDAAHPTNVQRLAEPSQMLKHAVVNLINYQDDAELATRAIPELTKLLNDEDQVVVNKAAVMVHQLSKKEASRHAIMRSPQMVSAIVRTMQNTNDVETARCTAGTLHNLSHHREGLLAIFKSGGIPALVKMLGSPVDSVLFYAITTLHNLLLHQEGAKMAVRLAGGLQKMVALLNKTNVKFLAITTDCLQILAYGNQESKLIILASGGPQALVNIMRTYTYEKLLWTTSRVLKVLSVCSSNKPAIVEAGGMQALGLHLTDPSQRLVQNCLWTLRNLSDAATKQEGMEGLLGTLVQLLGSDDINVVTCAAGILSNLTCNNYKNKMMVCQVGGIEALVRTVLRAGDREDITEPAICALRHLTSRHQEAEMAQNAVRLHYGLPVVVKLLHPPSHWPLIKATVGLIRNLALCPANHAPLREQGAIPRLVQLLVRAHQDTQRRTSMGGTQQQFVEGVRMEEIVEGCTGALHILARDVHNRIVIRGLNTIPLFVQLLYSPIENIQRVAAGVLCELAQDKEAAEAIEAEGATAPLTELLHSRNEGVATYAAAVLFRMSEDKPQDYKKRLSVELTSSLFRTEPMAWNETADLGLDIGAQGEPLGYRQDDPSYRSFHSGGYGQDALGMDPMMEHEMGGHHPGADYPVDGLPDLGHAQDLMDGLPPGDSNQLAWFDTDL
Procedure, shortened: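 Labelled TCF4 (5 nM) mixed with 100 nM β-catenin at room temperature; inhibitor added as serial dilutions from 10 nM to 30 uM. Polarization read at excitation 470 nm/emission 520 nm; binding displacement lowers polarization. Three independent runs.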

[1] = % Viability non-Wnt responsive cells
[2] = biological target: Wnt-responsive promoter (TCF/LEF); assay: Wnt-dependent luciferase reporter assay; format: cell-based, murine
Procedure, shortened: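 Murine 3T3 fibroblasts carrying a TCF/LEF-driven luciferase reporter, stimulated with Wnt3a in the presence of increasing peptide concentrations or vehicle. Luminescence inhibition gave EC50 values in uM.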

SMILES	β-Cat FP Hill slope (β-catenin)	Kd (β-catenin) [µM]	viability [1] [%]	EC50 [2] [µM]
CC[C@H](C)[C@H](NC(=O)[C@H](CC(C)C)NC(=O)[C@H](Cc1ccccc1)NC(=O)[C@H](Cc1c[nH]c2ccccc12)NC(=O)[C@@H](N)CCSC)C(=O)N[C@@H](CS)C(=O)N[C@@H](C)C(=O)N[C@@H](Cc1c[nH]c2ccccc12)C(=O)NCC(=O)O [compound 211] (H-MWFLICAWG-OH)	0.67	1 to 10	93.9	< 7.5
CC[C@H](C)[C@H](NC(=O)[C@H](CC(C)C)NC(=O)[C@H](Cc1ccccc1)NC(=O)[C@H](Cc1c[nH]c2ccccc12)NC(=O)[C@H](CCCNC(=N)N)NC(=O)[C@H](CCCNC(=N)N)NC(=O)[C@H](CO)NC(=O)[C@@H](N)CCSC)C(=O)N[C@@H](CO)C(=O)N[C@@H](Cc1ccccc1)C(=O)N[C@@H](Cc1c[nH]c2ccccc12)C(N)=O [compound 75] (H-MSRRWFLISFW-NH2)	–	> 30	99.2	> 30
CC[C@H](C)[C@H](NC(=O)[C@H](Cc1c[nH]c2ccccc12)NC(=O)[C@@H](N)CCSC)C(=O)NC(C)(CC(C)C)C(=O)N[C@H](C(=O)N[C@@H](CO)C(=O)N[C@@H](Cc1ccccc1)C(=O)N[C@@H](Cc1c[nH]c2ccccc12)C(=O)NCC(=O)O)[C@@H](C)CC (stereo partly drawn) [compound 138] (HELM PEPTIDE1{M.W.I.[CC(C)CC(C)(N[*:1])C(=O)[*:2]].I.S.F.W.G}$$$$V2.0)	–	> 30	106	> 30
CC[C@H](C)[C@H](NC(=O)[C@H](CC(C)C)NC(=O)[C@@H](NC(=O)[C@H](Cc1c[nH]c2ccccc12)NC(=O)[C@H](CCSC)NC(=O)C(C)(C)C)[C@@H](C)CC)C(=O)N[C@@H](CO)C(=O)N[C@@H](Cc1ccccc1)C(=O)N[C@@H](Cc1c[nH]c2ccccc12)C(=O)NCC(=O)O [compound 225] (HELM PEPTIDE1{[CC(C)(C)C(=O)[*:2]].M.W.I.L.I.S.F.W.G}$$$$V2.0)	0.7	0.4 to 1	101	< 7.5
CC[C@H](C)[C@@H]1NC(=O)[C@H](CC(C)C)NC(=O)[C@H](CC2CCCCC2)NC(=O)[C@H](Cc2c[nH]c3ccccc23)NC(=O)[C@@H](N)CCCCNC(=O)C[C@@H](C(=O)O)NC(=O)[C@H](Cc2c[nH]c3ccccc23)NC(=O)[C@H](C)NC(=O)[C@H](CO)NC1=O [compound 203] (HELM PEPTIDE1{K.W.[Cha].L.I.S.A.W.D}$PEPTIDE1,PEPTIDE1,1:R3-9:R3$$$V2.0)	–	> 30	98	7.5 to 15
CC[C@H](C)[C@H](NC(=O)[C@H](CC(C)C)NC(=O)[C@@H](NC(=O)[C@H](Cc1c[nH]c2ccccc12)NC(=O)[C@@H](N)Cc1c[nH]c2ccccc12)[C@@H](C)CC)C(=O)N[C@@H](CO)C(=O)N[C@@H](Cc1ccccc1)C(=O)N[C@@H](Cc1c[nH]c2ccccc12)C(=O)NCC(=O)O [compound 127] (H-WWILISFWG-OH)	1	0.4 to 1	120	7.5 to 15
CC[C@H](C)[C@H](NC(=O)[C@H](CC(C)C)NC(=O)[C@@H](NC(=O)[C@H](Cc1c[nH]c2ccccc12)NC(=O)[C@@H](N)Cc1c[nH]cn1)[C@@H](C)CC)C(=O)N[C@@H](CS)C(=O)N[C@@H](Cc1ccccc1)C(=O)N[C@@H](Cc1c[nH]c2ccccc12)C(=O)NCC(=O)O [compound 118] (H-HWILICFWG-OH)	–	> 30	99.9	< 7.5
CC[C@H](C)[C@H](NC(=O)[C@H](CC(C)C)NC(=O)[C@H](C)NC(=O)[C@H](Cc1c[nH]c2ccccc12)NC(=O)[C@@H](N)CCSC)C(=O)N[C@@H](CO)C(=O)N[C@@H](Cc1ccccc1)C(=O)N[C@@H](Cc1c[nH]c2ccccc12)C(=O)NCC(=O)O [compound 156] (H-MWALISFWG-OH)	–	> 30	102	< 7.5
CC[C@H](C)[C@H](NC(=O)[C@H](CC(C)C)NC(=O)[C@H](Cc1ccccc1)NC(=O)[C@H](Cc1c[nH]c2ccccc12)NC(=O)[C@@H](N)CCSC)C(=O)N[C@@H](CS)C(=O)N[C@@H](Cc1c[nH]cn1)C(=O)N[C@@H](Cc1c[nH]c2ccccc12)C(=O)NCC(=O)O [compound 145] (H-MWFLICHWG-OH)	0.7	1 to 10	107	7.5 to 15
CC[C@H](C)[C@@H]1NC(=O)[C@H](CC(C)C)NC(=O)[C@H](Cc2ccccc2)NC(=O)[C@H](Cc2c[nH]c3ccccc23)NC(=O)[C@@H](N)CCCCNC(=O)CNC(=O)CC[C@@H](C(=O)NCC(=O)O)NC(=O)[C@H](Cc2c[nH]c3ccccc23)NC(=O)[C@H](Cc2ccccc2)NC(=O)[C@H](CS)NC1=O [compound 174] (HELM PEPTIDE1{K.W.F.L.I.C.F.W.E.G}|CHEM1{[O=C(CN[*:2])[*:1]]}$PEPTIDE1,CHEM1,1:R3-1:R1|PEPTIDE1,CHEM1,9:R3-1:R2$$$V2.0)	0.7	1 to 10	102	7.5 to 15
CC[C@H](C)[C@H](NC(=O)[C@H](CC(C)C)NC(=O)[C@@H](NC(=O)[C@H](Cc1c[nH]c2ccccc12)NC(C)=O)[C@@H](C)CC)C(=O)N[C@@H](CO)C(=O)N[C@@H](Cc1ccccc1)C(=O)N[C@@H](Cc1c[nH]c2ccccc12)C(=O)NCC(=O)O [compound 195] (Ac-WILISFWG-OH)	3	< 0.4	105	< 7.5
CC[C@H](C)[C@H](NC(=O)[C@H](CC(C)C)NC(=O)[C@@H](NC(=O)[C@H](Cc1c[nH]c2ccccc12)NC(=O)[C@H](CCSC)NC(=O)[C@@H](N)CCCCN)[C@@H](C)CC)C(=O)N[C@@H](CO)C(=O)N[C@@H](Cc1ccccc1)C(=O)N[C@@H](Cc1c[nH]c2ccccc12)C(=O)NCC(=O)O [compound 122] (H-KMWILISFWG-OH)	1.55	< 0.4	113	22.5 to 30
CC[C@H](C)[C@H](NC(=O)[C@H](CC(C)C)NC(=O)[C@@H](NC(=O)[C@H](Cc1c[nH]c2ccccc12)NC(=O)[C@@H](N)CCSC)[C@@H](C)CC)C(=O)N[C@@H](CO)C(=O)N[C@@H](CO)C(=O)N[C@@H](Cc1c[nH]c2ccccc12)C(=O)NCC(=O)O [compound 129] (H-MWILISSWG-OH)	0.87	0.4 to 1	134	< 7.5
CC[C@H](C)[C@H](NC(=O)[C@H](CC(C)C)NC(=O)[C@@H](NC(=O)[C@H](Cc1c[nH]c2ccccc12)NC(=O)[C@H](CCSC)NC(C)=O)C1CCCCC1)C(=O)N[C@@H](CO)C(=O)N[C@@H](Cc1ccccc1)C(=O)N[C@@H](Cc1c[nH]c2ccccc12)C(=O)NCC(=O)O [compound 217] (HELM PEPTIDE1{[ac].M.W.[O=C([C@@H](N[*:1])C1CCCCC1)[*:2]].L.I.S.F.W.G}$$$$V2.0)	1.47	< 0.4	87.9	< 7.5
CC[C@H](C)[C@H](NC(=O)[C@H](CC(C)C)NC(=O)[C@H](Cc1ccccc1)NC(=O)[C@H](C)NC(=O)[C@@H](N)CCSC)C(=O)N[C@@H](CO)C(=O)N[C@@H](Cc1ccccc1)C(=O)N[C@@H](Cc1c[nH]c2ccccc12)C(=O)NCC(=O)O [compound 210] (H-MAFLISFWG-OH)	0.6	1 to 10	96.4	< 7.5
CC[C@H](C)[C@H](NC(=O)[C@H](CC(C)C)NC(=O)[C@H](Cc1ccc(O)cc1)NC(=O)[C@H](Cc1c[nH]c2ccccc12)NC(=O)[C@H](CCSC)NC(=O)[C@H](CCCNC(=N)N)NC(=O)[C@H](CO)NC(=O)[C@@H](N)CCSC)C(=O)N[C@@H](CO)C(=O)N[C@@H](Cc1ccccc1)C(=O)N[C@@H](Cc1c[nH]c2ccccc12)C(=O)NCC(=O)O [compound 66] (H-MSRMWYLISFWG-OH)	0.7	10 to 30	98.6	7.5 to 15
CC[C@H](C)[C@@H]1NC(=O)[C@H](CC(C)C)NC(=O)[C@H](Cc2ccccc2)NC(=O)[C@H](Cc2c[nH]c3ccccc23)NC(=O)[C@H](CCSC)NC(=O)[C@@H](N)CCCCNC(=O)CC[C@@H](C(=O)N[C@@H](Cc2c[nH]c3ccccc23)C(=O)NCC(=O)O)NC(=O)[C@H](CS)NC1=O [compound 180] (HELM PEPTIDE1{K.M.W.F.L.I.C.E.W.G}$PEPTIDE1,PEPTIDE1,1:R3-8:R3$$$V2.0)	–	> 30	103	< 7.5
CC[C@H](C)[C@H](NC(=O)[C@H](CC(C)C)NC(=O)[C@H](Cc1ccccc1)NC(=O)[C@H](Cc1c[nH]c2ccccc12)NC(C)=O)C(=O)N[C@@H](CO)C(=O)N[C@@H](Cc1ccccc1)C(=O)N[C@@H](Cc1c[nH]c2ccccc12)C(=O)NCC(=O)O [compound 220] (Ac-WFLISFWG-OH)	2.99	0.4 to 1	93.2	< 7.5

— patent publication US12441768B2, “Compositions and methods for treating endometriosis” (EndoMet Biosciences, Inc., priority 2018, dated 2025)
